In patent US9687522B2, “Methods of treating a subject afflicted with an autoimmune disease using predictive biomarkers of clinical response to glatiramer acetate therapy in multiple sclerosis” (TEVA PHARMACEUTICAL INDUSTRIES, LTD., priority 2010, dated 2017):

What was measured:
IL-18 = assay: Serum IL-18 by ELISA in GA-treated MS patients; assay type: in vivo, human
From the text: (§1) Approximately 60 cc of blood was obtained by venipuncture from each MS patient pre-treatment and at successive time points during treatment (3 months, 6 months, 9-12 months and 24 months). PBMC were purified using Ficoll-Hypaque gradients as described in the supplier's protocol (ICN Biomedicals Inc. Ohio, USA). Samples from collaborating centers were sent via overnight FedEx™ delivery at room temperature and processed immediately upon arrival.
(§2) Interleukin-18 and caspase-1 levels were detected by human ELISA kits (Sandwich ELISA, Bender Nedaystems, USA). The sensitivity of the ELISA was 9.2 and 3.3 pg/ml for IL-18 and caspase-1 respectively. TGF-β, TNF-α, IL-4, IFN-γ, IL-17 and IL-10 levels were detected by human ELISA kits from ebioscience (San Diego Calif., 92121 USA). The sensitivity of the ebioscience kits were 60 pg/ml, 4 pg/ml, 2 pg/ml, 4 pg/ml, 4 pg/ml and 2 pg/ml respectively. BDNF was detected by the Human BDNF ELISA kit from Chemicon International (catalog #CYT306). The sensitivity of the BDNF ELISA was 7.8 pg/ml. […] Duplicates should be within 20% of the mean.

caspase-1 = assay: Serum caspase-1 by ELISA in GA-treated MS patients; assay type: in vivo, human
From the text: as §1, §2

IL-4 = assay: Serum IL-4 by ELISA in GA-treated MS patients; assay type: in vivo, human
From the text: as §1, §2

TGF-β = assay: Serum TGF-β by ELISA in GA-treated MS patients; assay type: in vivo, human
From the text: as §1, §2

IL-17 = IL-17 by ELISA in ex-vivo PBMC supernatant of GA-treated MS patients; assay type: cell-based, human
Protocol: as §1
(§3) 2×10^5 PBMC/well were seeded in 96 well U-bottom micro titer plate in the absence of antigen (unstimulated condition) (US) or the presence of GA at 40 and 100 μg/ml (Teva Pharmaceutical Industries, Ltd., Israel), tetanus toxoid (TT 5 μg) obtained from UMASS (University of Mass, Worcester, Mass.). The latter was used as a control antigen. Supernatants were collected from cultured cells at days 1, 3 and 5 for various assays. After 5 days, 1 μCi ^3H-thymidine was added. Cells were harvested 18 hours later using TOMTEC cell harvester (TOMTEC, Hamden Conn.). Incorporated radioactivity was measured using a liquid Scintillation counter (Wallac MicroBeta Trilux, PerkinElmer, Boston, Mass.).
as §2

IFN-γ = IFN-γ ELISPOT in ex-vivo PBMC of GA-treated MS patients; assay type: cell-based, human; conditions: CD3/CD28 stimulated PBMC
From the text: as §1
(§4) Human IFN-γ (Th1 indicator) and IL-4 (Th2 indicator) were measured by the ELISPOT assay according to the manufacturer's protocol (BD Biosciences, San Diego, Calif., USA). Briefly, ELISPOT plates (PVDF plate, Millipore Corporation, MA, USA) were coated with 100 μl/well of 5 μg/ml capture antibody at 4° C. over night. The plates were then washed with PBS, and incubated with 200 μl/well of blocking solution (culture medium) for 2 hours. PBMC (2×10^5 cells/well for IFN-γ and 4×10^5 cells/well for IL-4 detection) and antigen (GA 40 and 100 μg/ml, TT 5 μg/ml, CD3Ab (2.5 μg/ml)/CD28 Ab (1 μg/ml)) was added and cultured overnight at 37° C. in a 5% CO2 incubator. Samples were tested in triplicate wells in response to each antigen. After overnight culture, the plates were washed twice with deionized water and three times with PBS, then incubated with 100 μl of 2.0 μg/ml biotinylated antibody for 2 hours at room temperature. The plates were then washed three times with wash buffer (0.05% Tween-20 PBS), and incubated with 100 μl of 1:100 dilution of Avidin-HRP for 1 hour at room temperature and washed three times with wash buffer. Finally 100 μl of AEC (3-amino-9-ethyl-carbazole) substrate was added and the reaction was stopped by washing plates with distilled water. Spots were counted and analyzed by CTL Analyzers LLC ELISPOT Plate Reader (Cleveland, Ohio, USA).

IL-4/IFN-γ ratio = IL-4/IFN-γ ratio by ELISPOT in ex-vivo PBMC of GA-treated MS patients; assay type: cell-based, human; conditions: for IL-4/IFN-γ RATIO (ELISPOT): CD3/CD28 stimulated PBMC
From the text: as §1, §4

BDNF = BDNF by ELISA in supernatant of GA-stimulated PBMC; assay type: cell-based, human
Protocol: as §1
as §3, with “Cells were harvested 18 hours later using TOMTEC cell harvester (TOMTEC, Hamden Conn.).” left out
Interleukin-18 and caspase-1 levels were detected by human ELISA kits (Sandwich ELISA, Bender Nedaystems, USA). […] TGF-β, TNF-α, IL-4, IFN-γ, IL-17 and IL-10 levels were detected by human ELISA kits from ebioscience (San Diego Calif., 92121 USA). […] BDNF was detected by the Human BDNF ELISA kit from Chemicon International (catalog #CYT306). […]

Glatiramer acetate [GA]
Serum IL-18 level (IL-18; HR/NR, 3 mo): 284 ± 35 pg/mL | Serum IL-18 level (IL-18; HR/NR, 6 mo): 310 ± 39 pg/mL | Serum IL-18 level (IL-18; HR/NR, 9-12 mo): 283 ± 22 pg/mL | Serum IL-18 level (IL-18; HR/NR, 24 mo): 265 ± 15 pg/mL | Serum IL-18 level (IL-18; HR/NR, Pre-Rx): 300 ± 29 pg/mL | Serum IL-18 level (IL-18; R, 3 mo): 279 ± 23 pg/mL | Serum IL-18 level (IL-18; R, 6 mo): 189 ± 26 pg/mL | Serum IL-18 level (IL-18; R, 9-12 mo): 262 ± 15 pg/mL | Serum IL-18 level (IL-18; R, 24 mo): 260 ± 12 pg/mL | Serum IL-18 level (IL-18; R, Pre-Rx): 304 ± 26 pg/mL | Δ IL-18 6 months, Median (Non-Responders) (IL-18; serum, change from baseline): 2 | Δ IL-18 6 months, Median (Responders) (IL-18; serum, change from baseline): −102 | Serum caspase-1 level (caspase-1; HR/NR, 3 mo): 284 ± 35 pg/mL | Serum caspase-1 level (caspase-1; HR/NR, 6 mo): 302 ± 42 pg/mL | Serum caspase-1 level (caspase-1; HR/NR, 9-12 mo): 255 ± 21 pg/mL | Serum caspase-1 level (caspase-1; HR/NR, 24 mo): 276 ± 7 pg/mL | Serum caspase-1 level (caspase-1; HR/NR, Pre-Rx): 300 ± 29 pg/mL | Serum caspase-1 level (caspase-1; R, 3 mo): 279 ± 23 pg/mL | Serum caspase-1 level (caspase-1; R, 6 mo): 187 ± 21 pg/mL | Serum caspase-1 level (caspase-1; R, 9-12 mo): 288 ± 12 pg/mL | Serum caspase-1 level (caspase-1; R, 24 mo): 282 ± 11 pg/mL | Serum caspase-1 level (caspase-1; R, Pre-Rx): 325 ± 26 pg/mL | Δ Caspace 6 months, Median (Non-Responders) (caspase-1; serum, change from baseline): −19 | Δ Caspace 6 months, Median (Responders) (caspase-1; serum, change from baseline): −142.5 | Serum IL-4 level (IL-4; HR/NR, 3 mo): 13 ± 0.92 pg/mL | Serum IL-4 level (IL-4; HR/NR, 6 mo): 13 ± 1.4 pg/mL | Serum IL-4 level (IL-4; HR/NR, 9-12 mo): 18 ± 1.4 pg/mL | Serum IL-4 level (IL-4; HR/NR, 24 mo): 16 ± 1 pg/mL | Serum IL-4 level (IL-4; HR/NR, Pre-Rx): 14 ± 0.70 pg/mL | Serum IL-4 level (IL-4; R, 3 mo): 16 ± 0.70 pg/mL | Serum IL-4 level (IL-4; R, 6 mo): 17 ± 0.81 pg/mL | Serum IL-4 level (IL-4; R, 9-12 mo): 17 ± 1.8 pg/mL | Serum IL-4 level (IL-4; R, 24 mo): 16 ± 1.0 pg/mL | Serum IL-4 level (IL-4; R, Pre-Rx): 16 ± 0.60 pg/mL | Δ IL-4 6 months, Median (Non-Responders) (IL-4; serum, change from baseline): −1.5 | Δ IL-4 6 months, Median (Responders) (IL-4; serum, change from baseline): 1 | Serum TGF-β level (TGF-β; HR/NR, 3 mo): 1921 ± 150 pg/mL | Serum TGF-β level (TGF-β; HR/NR, 6 mo): 1723 ± 147 pg/mL | Serum TGF-β level (TGF-β; HR/NR, 9-12 mo): 1727 ± 97 pg/mL | Serum TGF-β level (TGF-β; HR/NR, 24 mo): 1844 ± 53 pg/mL | Serum TGF-β level (TGF-β; HR/NR, Pre-Rx): 1796 ± 95 pg/mL | Serum TGF-β level (TGF-β; R, 3 mo): 1908 ± 70 pg/mL | Serum TGF-β level (TGF-β; R, 6 mo): 1968 ± 75 pg/mL | Serum TGF-β level (TGF-β; R, 9-12 mo): 1901 ± 64 pg/mL | Serum TGF-β level (TGF-β; R, 24 mo): 1983 ± 93 pg/mL | Serum TGF-β level (TGF-β; R, Pre-Rx): 1774 ± 48 pg/mL | Supernatant IL-17 level (IL-17; HR/NR, 3 mo): 160 ± 25 pg/mL | Supernatant IL-17 level (IL-17; HR/NR, 6 mo): 146 ± 25 pg/mL | Supernatant IL-17 level (IL-17; HR/NR, 9-12 mo): 129 ± 7.3 pg/mL | Supernatant IL-17 level (IL-17; HR/NR, 24 mo): 179 ± 21 pg/mL | Supernatant IL-17 level (IL-17; HR/NR, Pre-Rx): 178 ± 25 pg/mL | Supernatant IL-17 level (IL-17; R, 3 mo): 184 ± 40 pg/mL | Supernatant IL-17 level (IL-17; R, 6 mo): 60 ± 35 pg/mL | Supernatant IL-17 level (IL-17; R, 9-12 mo): 134 ± 12 pg/mL | Supernatant IL-17 level (IL-17; R, 24 mo): 167 ± 18 pg/mL | Supernatant IL-17 level (IL-17; R, Pre-Rx): 176 ± 31 pg/mL | IFN-γ expression (ELISPOT, mean number of spots) (IFN-γ; HR/NR, 3 mo): 206 ± 24 | IFN-γ expression (ELISPOT, mean number of spots) (IFN-γ; HR/NR, 6 mo): 233 ± 26 | IFN-γ expression (ELISPOT, mean number of spots) (IFN-γ; HR/NR, 9-12 mo): 218 ± 34 | IFN-γ expression (ELISPOT, mean number of spots) (IFN-γ; HR/NR, 24 mo): 186 ± 35 | IFN-γ expression (ELISPOT, mean number of spots) (IFN-γ; HR/NR, Baseline): 192 ± 26 | IFN-γ expression (ELISPOT, mean number of spots) (IFN-γ; R, 3 mo): 182 ± 18 | IFN-γ expression (ELISPOT, mean number of spots) (IFN-γ; R, 6 mo): 150 ± 15 | IFN-γ expression (ELISPOT, mean number of spots) (IFN-γ; R, 9-12 mo): 110 ± 19 | IFN-γ expression (ELISPOT, mean number of spots) (IFN-γ; R, 24 mo): 86 ± 14 | IFN-γ expression (ELISPOT, mean number of spots) (IFN-γ; R, Baseline): 197 ± 28 | IL-4/IFN-γ RATIO (ELISPOT) (IL-4/IFN-γ ratio; HR/NR, 3 mo): 0.08 ± 0.02 | IL-4/IFN-γ RATIO (ELISPOT) (IL-4/IFN-γ ratio; HR/NR, 6 mo): 0.06 ± 0.05 | IL-4/IFN-γ RATIO (ELISPOT) (IL-4/IFN-γ ratio; HR/NR, 9-12 mo): 0.08 ± 0.05 | IL-4/IFN-γ RATIO (ELISPOT) (IL-4/IFN-γ ratio; HR/NR, 24 mo): 0.10 ± 0.05 | IL-4/IFN-γ RATIO (ELISPOT) (IL-4/IFN-γ ratio; HR/NR, Baseline): 0.12 ± 0.05 | IL-4/IFN-γ RATIO (ELISPOT) (IL-4/IFN-γ ratio; R, 3 mo): 0.24 ± 0.04 | IL-4/IFN-γ RATIO (ELISPOT) (IL-4/IFN-γ ratio; R, 6 mo): 0.32 ± 0.07 | IL-4/IFN-γ RATIO (ELISPOT) (IL-4/IFN-γ ratio; R, 9-12 mo): 0.34 ± 0.08 | IL-4/IFN-γ RATIO (ELISPOT) (IL-4/IFN-γ ratio; R, 24 mo): 0.25 ± 0.07 | IL-4/IFN-γ RATIO (ELISPOT) (IL-4/IFN-γ ratio; R, Baseline): 0.11 ± 0.02 | IL-4/IFN-γ ratio in unstimulated and in anti-CD3/CD28 stimulated PBMC (IL-4/IFN-γ ratio; GA-R, during treatment versus pre-treatment): significantly higher among GA-R during treatment compared to pre-treatment levels | BDNF production with GA used as ex-vivo stimulus (BDNF; GA versus TT as stimulus of PBMC): slightly higher level compared to TT | supernatant BDNF levels from GA-stimulated PBMCs (BDNF; GA-R group, 3 months, p=0.01, not in the GA HR/NR group): significant increase at 3 months during treatment compared to baseline
